Patent publication US20260285850A1, “SUBSTITUTED OXAZOLIDINONES AND IMIDAZOLINONES AS HERBICIDES” (FMC CORPORATION, priority 2023, published 2026)

Key:
Type in all cases: in vivo
corn (Zea mays) [1] = test: Test A postemergence application, visual injury rating 0-100; details: Postemergence
Text: (§1) Seeds of plant species selected from barnyardgrass (Echinochloa crus-galli), blackgrass (Alopecurus myosuroides), corn (Zea mays), foxtail, giant (giant foxtail, Setaria faberi), green foxtail (Setaria viridis), goosegrass (Eleusine indica), kochia (Bassia scoparia), oat, wild (wild oat, Avena fatua), palmer (palmer amaranth, palmer pigweed, Amaranthus palmeri), ragweed (common ragweed, Ambrosia artemisiifolia), ryegrass, Italian (italian ryegrass, Lolium multiflorum), soybean (Glycine max) and wheat (Triticum aestivum) were planted into a blend of loam soil and sand and treated preemergence with a directed soil spray using test chemicals formulated in a non-phytotoxic solvent mixture which included a surfactant.
(§2) At the same time, plants selected from these crops and weed species and also galium (catchweed bedstraw, Galium aparine) and horseweed (Erigeron canadensis) were planted in pots containing the same blend of loam soil and sand and treated with postemergence applications of test chemicals formulated in the same manner. Plants ranged in height from 2 to 10 cm and were in the one- to two-leaf stage for the postemergence treatment. Treated plants and untreated controls were maintained in a greenhouse for 10 days, after which time all treated plants were compared to untreated controls and visually evaluated for injury. Plant response ratings, summarized in Table A, are based on a 0 to 100 scale where 0 is no effect and 100 is complete control. A dash (-) response means no test result.

[2] = test system: oat, wild (wild oat, Avena fatua); test: as above; details: Postemergence
Text: as §1, §2

[3] = test system: horseweed (Erigeron canadensis); test: as above; details: Postemergence
Text: as §1, §2

kochia (Bassia scoparia) [4] = test: as above; details: Postemergence
Text: as §1, §2

[5] = test system: palmer (palmer amaranth, palmer pigweed, Amaranthus palmeri); test: as above; details: Postemergence
Text: as §1, §2

[6] = test system: galium (catchweed bedstraw, Galium aparine); test: as above; details: Postemergence
Text: as §1, §2

[7] = test system: ryegrass, Italian (italian ryegrass, Lolium multiflorum); test: as above; details: Postemergence
Text: as §1, §2

[8] = test system: wheat (Triticum aestivum); test: as above; details: Postemergence
Text: as §1, §2

soybean (Glycine max) [9] = test: as above; details: Postemergence
Text: as §1, §2

[10] = test system: blackgrass (Alopecurus myosuroides); test: as above; details: Postemergence
Text: as §1, §2

[11] = test system: ragweed (common ragweed, Ambrosia artemisiifolia); test: as above; details: Postemergence
Text: as §1, §2

[12] = test system: barnyardgrass (Echinochloa crus-galli); test: as above; details: Postemergence
Text: as §1, §2

corn (Zea mays) [13] = test: Test A preemergence soil spray, visual injury rating 0-100; details: 10 days; for Corn plant response rating: 31 g ai/ha, 0 to 100 scale; for Corn plant response rating (0 to 100 scale): 125 g ai/ha, 0 = no effect, 100 = complete control
Text: as §1, §2

[14] = test system: oat, wild (wild oat, Avena fatua); test: as above; details: 10 days; for Oat, Wild plant response rating: 31 g ai/ha, 0 to 100 scale; for Oat, Wild plant response rating (0 to 100 scale): 125 g ai/ha, 0 = no effect, 100 = complete control
Text: as §1, §2

kochia (Bassia scoparia) [15] = test: as above; details: 10 days; for Kochia plant response rating: 31 g ai/ha, 0 to 100 scale; for Kochia plant response rating (0 to 100 scale): 0 = no effect, 100 = complete control
Text: as §1, §2

[16] = test system: palmer (palmer amaranth, palmer pigweed, Amaranthus palmeri); test: as above; details: 10 days; for Amaranth, Palmer (Pigweed, Palmer) plant response rating: 31 g ai/ha, 0 to 100 scale; for Amaranth, Palmer plant response rating (0 to 100 scale): 125 g ai/ha
Text: as §1, §2

[17] = test system: ryegrass, Italian (italian ryegrass, Lolium multiflorum); test: as above; details: 10 days; for Ryegrass, Italian plant response rating: 31 g ai/ha, 0 to 100 scale; for Ryegrass, Italian plant response rating (0 to 100 scale): 0 = no effect, 100 = complete control
Text: as §1, §2

[18] = test system: wheat (Triticum aestivum); test: as above; details: 10 days; for Wheat plant response rating: 31 g ai/ha, 0 to 100 scale; for Wheat plant response rating (0 to 100 scale): 125 g ai/ha, 0 = no effect, 100 = complete control
Text: as §1, §2

soybean (Glycine max) [19] = test: as above; details: 10 days; for Soybean plant response rating: 31 g ai/ha, 0 to 100 scale; for Soybean plant response rating (0 to 100 scale): 125 g ai/ha, 0 = no effect, 100 = complete control
Text: as §1, §2

[20] = test system: blackgrass (Alopecurus myosuroides); test: as above; details: 10 days; for Blackgrass plant response rating: 31 g ai/ha, 0 to 100 scale; for Blackgrass plant response rating (0 to 100 scale): 125 g ai/ha, 0 = no effect, 100 = complete control
Text: as §1, §2

[21] = test system: ragweed (common ragweed, Ambrosia artemisiifolia); test: as above; details: 10 days; for Ragweed plant response rating: 31 g ai/ha, 0 to 100 scale; for Ragweed plant response rating (0 to 100 scale): 125 g ai/ha, 0 = no effect, 100 = complete control
Text: as §1, §2

[22] = test system: barnyardgrass (Echinochloa crus-galli); test: as above; details: 10 days; for Barnyardgrass plant response rating: 31 g ai/ha, 0 to 100 scale; for Barnyardgrass plant response rating (0 to 100 scale): 0 = no effect, 100 = complete control
Text: as §1, §2

[23] = test system: green foxtail (Setaria viridis); test: Test A postemergence application, visual injury rating 0-100; details: Postemergence, 1000 g ai/ha, 0 to 100 scale, 10 days
Text: as §1, §2

[24] = test system: green foxtail (Setaria viridis); test: Test A preemergence soil spray, visual injury rating 0-100; details: 1000 g ai/ha, 10 days, 0 = no effect, 100 = complete control
Text: as §1, §2

[25] = 31 g ai/ha, greenhouse 10 days, 0 no effect, 100 complete control
[26] = 125 g ai/ha, 10 days, 0 is no effect, 100 is complete control
[27] = 0 = no effect, 100 = complete control
[28] = 1000 g ai/ha, 0 to 100 scale, 10 days

## CC1(C(=O)NC2C=CC(C(=O)NS(=O)(=O)C3CC3)C2)CN(c2cc(Cl)cc(Cl)c2)C(=O)O1 (stereo not drawn) [Compound 85]
Corn (Zea mays) [1]; [25]
  Corn plant response rating (0 to 100 scale): 20
Corn (Zea mays) [1]; [26]
  Corn plant response rating (0 to 100 scale): 90
[2]; [25]
  Oat, Wild plant response rating (0 to 100 scale): 80
[2]; [26]
  Oat, Wild plant response rating (0 to 100 scale): 90
[3]; [25]
  Horseweed plant response rating (0 to 100 scale): 60
[3]; [26]
  Horseweed plant response rating (0 to 100 scale): 60
Kochia (Bassia scoparia) [4]; [25]
  Kochia plant response rating (0 to 100 scale): 50
Kochia (Bassia scoparia) [4]; [26]
  Kochia plant response rating (0 to 100 scale): 70
[5]; [25]
  Amaranth, Palmer / Pigweed, Palmer plant response rating (0 to 100 scale): 40
[5]; [26]
  Amaranth, Palmer / Pigweed, Palmer plant response rating (0 to 100 scale): 90
[6]; [25]
  Galium plant response rating (0 to 100 scale): 50
[6]; [26]
  Galium plant response rating (0 to 100 scale): 80
[7]; [25]
  Ryegrass, Italian plant response rating (0 to 100 scale): 60
[7]; [26]
  Ryegrass, Italian plant response rating (0 to 100 scale): 70
[8]; [25]
  Wheat plant response rating (0 to 100 scale): 80
[8]; [26]
  Wheat plant response rating (0 to 100 scale): 90
Soybean (Glycine max) [9]; [25]
  Soybean plant response rating (0 to 100 scale): 40
Soybean (Glycine max) [9]; [26]
  Soybean plant response rating (0 to 100 scale): 60
[10]; [25]
  Blackgrass plant response rating (0 to 100 scale): 60
[10]; [26]
  Blackgrass plant response rating (0 to 100 scale): 80
[11]; [25]
  Ragweed plant response rating (0 to 100 scale): 30
[11]; [26]
  Ragweed plant response rating (0 to 100 scale): 60
[12]; [25]
  Barnyardgrass plant response rating (0 to 100 scale): 90
[12]; [26]
  Barnyardgrass plant response rating (0 to 100 scale): 90
Corn (Zea mays) [13]
  Corn plant response rating: 0
  Corn plant response rating (0 to 100 scale): 30
[14]
  Oat, Wild plant response rating: 20
  Oat, Wild plant response rating (0 to 100 scale): 50
Kochia (Bassia scoparia) [15]
  Kochia plant response rating: 20
Kochia (Bassia scoparia) [15]; 125 g ai/ha
  Kochia plant response rating (0 to 100 scale): 90
[16]
  Amaranth, Palmer (Pigweed, Palmer) plant response rating: 80
[16]; [27]
  Amaranth, Palmer plant response rating (0 to 100 scale): 90
[17]
  Ryegrass, Italian plant response rating: 60
[17]; 125 g ai/ha
  Ryegrass, Italian plant response rating (0 to 100 scale): 80
[18]
  Wheat plant response rating: 0
  Wheat plant response rating (0 to 100 scale): 90
Soybean (Glycine max) [19]
  Soybean plant response rating: 0
  Soybean plant response rating (0 to 100 scale): 10
[20]
  Blackgrass plant response rating: 0
  Blackgrass plant response rating (0 to 100 scale): 20
[21]
  Ragweed plant response rating: 30
  Ragweed plant response rating (0 to 100 scale): 20
[22]
  Barnyardgrass plant response rating: 20
[22]; 125 g ai/ha
  Barnyardgrass plant response rating (0 to 100 scale): 90

## CC1(C(=O)NC2C=CC(C(=O)O)C2)CN(c2cc(F)cc(F)c2)C(=O)N1 (stereo not drawn) [Compound 179]
[3]; [28]
  Horseweed plant response rating: 80
Kochia (Bassia scoparia) [4]; [28]
  Kochia plant response rating: 90
[23]
  Foxtail, Green plant response rating: 90
[6]; [28]
  Galium plant response rating: 90
[10]; [28]
  Blackgrass plant response rating: 100
[12]; [28]
  Barnyardgrass plant response rating: 100
Kochia (Bassia scoparia) [15]; 1000 g ai/ha
  Kochia plant response rating (0 to 100 scale): 100
[24]
  Foxtail, Green plant response rating (0 to 100 scale): 100
[16]; 1000 g ai/ha, 0 = no effect, 100 = complete control
  Amaranth, Palmer / Pigweed, Palmer plant response rating (0 to 100 scale): 60
[17]; 1000 g ai/ha
  Ryegrass, Italian plant response rating (0 to 100 scale): 100
[22]; 1000 g ai/ha
  Barnyardgrass plant response rating (0 to 100 scale): 100

## CCS(=O)(=O)NC(=O)C1C=CC(NC(=O)C2(C)CN(c3cc(Cl)cc(Cl)c3)C(=O)O2)C1 (stereo not drawn) [Compound 83]
Corn (Zea mays) [1]; [25]
  Corn plant response rating (0 to 100 scale): 20
Corn (Zea mays) [1]; [26]
  Corn plant response rating (0 to 100 scale): 90
[2]; [25]
  Oat, Wild plant response rating (0 to 100 scale): 80
[2]; [26]
  Oat, Wild plant response rating (0 to 100 scale): 90
[3]; [25]
  Horseweed plant response rating (0 to 100 scale): 20
[3]; [26]
  Horseweed plant response rating (0 to 100 scale): 70
Kochia (Bassia scoparia) [4]; [25]
  Kochia plant response rating (0 to 100 scale): 70
Kochia (Bassia scoparia) [4]; [26]
  Kochia plant response rating (0 to 100 scale): 70
[5]; [25]
  Amaranth, Palmer / Pigweed, Palmer plant response rating (0 to 100 scale): 80
[5]; [26]
  Amaranth, Palmer / Pigweed, Palmer plant response rating (0 to 100 scale): 90
[6]; [25]
  Galium plant response rating (0 to 100 scale): 80
[6]; [26]
  Galium plant response rating (0 to 100 scale): 80
[7]; [25]
  Ryegrass, Italian plant response rating (0 to 100 scale): 60
[7]; [26]
  Ryegrass, Italian plant response rating (0 to 100 scale): 70
[8]; [25]
  Wheat plant response rating (0 to 100 scale): 90
[8]; [26]
  Wheat plant response rating (0 to 100 scale): 90
Soybean (Glycine max) [9]; [25]
  Soybean plant response rating (0 to 100 scale): 20
Soybean (Glycine max) [9]; [26]
  Soybean plant response rating (0 to 100 scale): 60
[10]; [25]
  Blackgrass plant response rating (0 to 100 scale): 60
[10]; [26]
  Blackgrass plant response rating (0 to 100 scale): 90
[11]; [25]
  Ragweed plant response rating (0 to 100 scale): 60
[11]; [26]
  Ragweed plant response rating (0 to 100 scale): 80
[12]; [25]
  Barnyardgrass plant response rating (0 to 100 scale): 90
[12]; [26]
  Barnyardgrass plant response rating (0 to 100 scale): 90
Corn (Zea mays) [13]
  Corn plant response rating: 0
  Corn plant response rating (0 to 100 scale): 60
[14]
  Oat, Wild plant response rating: 0
  Oat, Wild plant response rating (0 to 100 scale): 60
Kochia (Bassia scoparia) [15]
  Kochia plant response rating: 0
Kochia (Bassia scoparia) [15]; 125 g ai/ha
  Kochia plant response rating (0 to 100 scale): 90
[16]
  Amaranth, Palmer (Pigweed, Palmer) plant response rating: 70
[16]; [27]
  Amaranth, Palmer plant response rating (0 to 100 scale): 100
[17]
  Ryegrass, Italian plant response rating: 60
[17]; 125 g ai/ha
  Ryegrass, Italian plant response rating (0 to 100 scale): 80
[18]
  Wheat plant response rating: 0
  Wheat plant response rating (0 to 100 scale): 60
Soybean (Glycine max) [19]
  Soybean plant response rating: 40
  Soybean plant response rating (0 to 100 scale): 10
[20]
  Blackgrass plant response rating: 0
  Blackgrass plant response rating (0 to 100 scale): 40
[21]
  Ragweed plant response rating: 0
  Ragweed plant response rating (0 to 100 scale): 20
[22]
  Barnyardgrass plant response rating: 30
[22]; 125 g ai/ha
  Barnyardgrass plant response rating (0 to 100 scale): 70
